Assay results reported in patent publication US10392368B2, “Pyrazolo and triazolo bicyclic compounds as JAK kinase inhibitors” (THERAVANCE BIOPHARMA R&D IP, LLC, priority 2017, dated 2019).
Where two headings read alike, the source gives them in different places.

Legend:
JAK2 = target: T1, JAK2 (Homo sapiens, UniProt O60674); experiment: Biochemical JAK2 kinase assay (LanthaScreen); conditions: for Ki: read-out: JAK 2 (pKi) (converted)
T1 construct: GST; purchased Life Technologies
Outline: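 GST-tagged recombinant JAK2 pre-incubated 1 h at ambient temperature with compound and GFP-STAT1 peptide in HEPES pH 7.5/MgCl2 buffer, then ATP added for a 1 h reaction with 1% DMSO. TR-FRET read after EDTA and Tb-anti-pSTAT1 (pTyr701) addition; IC50 from 4-parameter fit, converted to pKi by Cheng-Prusoff.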

[1] = tested on: IL-2 stimulated pSTAT5 in Tall-1 T cells; experiment: Cellular JAK3 potency assay: inhibition of IL-2 stimulated pSTAT5 in Tall-1 T cells; format: cell-based, human; conditions: for IC50: Homo sapiens, read-out: Tall-1 (pIC50) (converted)
Outline: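 In human Tall-1 T cells, IL-2 (300 ng/ml final, 30 min) drives STAT5 phosphorylation after a 1 h compound pretreatment. Lysates are assayed for pSTAT5 by AlphaLisa, and IC50 derived from signal versus concentration is expressed as pIC50.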

Tyk2 = target: T2, Tyk2 (Homo sapiens, UniProt P29597); experiment: Biochemical Tyk2 kinase assay (LanthaScreen); conditions: for Ki: read-out: Tyk 2 (pKi) (converted)
T2 construct: GST; purchased Life Technologies
Outline: (§1)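 TR-FRET readout (520/495 nm) using Tb-labelled pTyr701 antibody after EDTA stop, following 1 h ATP-started phosphorylation of GFP-STAT1 by recombinant GST-JAK. Compounds preincubated 1 h with enzyme and substrate; pIC50 from 4-parameter fit, Cheng-Prusoff gives pKi.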

JAK3 = target: T3, JAK3 (Homo sapiens, UniProt P52333); experiment: Biochemical JAK3 kinase assay (LanthaScreen); parameters: GST; purchased Life Technologies; conditions: for Ki: read-out: JAK 3 (pKi) (converted)
T3 sequence (P52333 1-1124): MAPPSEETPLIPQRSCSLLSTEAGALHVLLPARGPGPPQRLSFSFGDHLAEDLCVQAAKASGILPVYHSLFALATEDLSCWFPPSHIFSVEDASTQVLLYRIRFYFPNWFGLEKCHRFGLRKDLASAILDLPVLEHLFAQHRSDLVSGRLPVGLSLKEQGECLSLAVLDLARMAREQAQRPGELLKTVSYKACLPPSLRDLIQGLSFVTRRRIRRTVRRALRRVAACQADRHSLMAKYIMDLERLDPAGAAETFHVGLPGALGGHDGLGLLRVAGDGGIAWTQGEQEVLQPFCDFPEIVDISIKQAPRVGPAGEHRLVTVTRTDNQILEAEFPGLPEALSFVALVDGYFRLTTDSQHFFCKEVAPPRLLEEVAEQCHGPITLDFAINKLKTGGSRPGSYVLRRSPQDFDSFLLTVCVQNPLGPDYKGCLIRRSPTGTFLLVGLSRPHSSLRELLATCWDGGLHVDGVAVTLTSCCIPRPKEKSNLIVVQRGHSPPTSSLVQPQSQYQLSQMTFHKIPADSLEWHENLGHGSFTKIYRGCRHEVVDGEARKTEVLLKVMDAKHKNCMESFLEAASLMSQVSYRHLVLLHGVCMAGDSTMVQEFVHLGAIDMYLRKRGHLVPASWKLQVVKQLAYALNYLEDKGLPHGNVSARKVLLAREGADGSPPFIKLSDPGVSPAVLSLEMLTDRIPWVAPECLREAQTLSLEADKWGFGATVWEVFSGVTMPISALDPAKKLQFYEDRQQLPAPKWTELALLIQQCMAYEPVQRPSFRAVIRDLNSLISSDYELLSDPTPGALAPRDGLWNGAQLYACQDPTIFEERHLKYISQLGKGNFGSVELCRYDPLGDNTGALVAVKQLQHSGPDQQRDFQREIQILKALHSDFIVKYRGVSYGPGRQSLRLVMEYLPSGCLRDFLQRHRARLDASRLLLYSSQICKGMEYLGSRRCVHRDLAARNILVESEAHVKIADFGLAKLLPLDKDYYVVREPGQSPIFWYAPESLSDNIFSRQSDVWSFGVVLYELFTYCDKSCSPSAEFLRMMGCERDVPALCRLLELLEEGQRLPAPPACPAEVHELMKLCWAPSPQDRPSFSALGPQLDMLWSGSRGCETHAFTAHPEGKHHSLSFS
Outline: as §1

JAK1 = target: T4, JAK1 (Homo sapiens, UniProt P23458); experiment: Biochemical JAK1 kinase assay (LanthaScreen); conditions: for Ki: read-out: JAK 1 (pKi) (converted)
T4 construct: GST; purchased Life Technologies
Outline: as §1

[2] = TALL-1, IL-2 stimulated pSTAT5, Tall-1 T cells
[3] = selectivity JAK3 over JAK1, difference of pKi
[4] = TALL-1, IL-2 stimulated pSTAT5 in Tall-1 T cells
[5] = selectivity: difference of pKi JAK3 and pKi JAK1
[6] = IL-2 stimulated pSTAT5, Tall-1 T cells

T2 sequence (P29597 whole entry): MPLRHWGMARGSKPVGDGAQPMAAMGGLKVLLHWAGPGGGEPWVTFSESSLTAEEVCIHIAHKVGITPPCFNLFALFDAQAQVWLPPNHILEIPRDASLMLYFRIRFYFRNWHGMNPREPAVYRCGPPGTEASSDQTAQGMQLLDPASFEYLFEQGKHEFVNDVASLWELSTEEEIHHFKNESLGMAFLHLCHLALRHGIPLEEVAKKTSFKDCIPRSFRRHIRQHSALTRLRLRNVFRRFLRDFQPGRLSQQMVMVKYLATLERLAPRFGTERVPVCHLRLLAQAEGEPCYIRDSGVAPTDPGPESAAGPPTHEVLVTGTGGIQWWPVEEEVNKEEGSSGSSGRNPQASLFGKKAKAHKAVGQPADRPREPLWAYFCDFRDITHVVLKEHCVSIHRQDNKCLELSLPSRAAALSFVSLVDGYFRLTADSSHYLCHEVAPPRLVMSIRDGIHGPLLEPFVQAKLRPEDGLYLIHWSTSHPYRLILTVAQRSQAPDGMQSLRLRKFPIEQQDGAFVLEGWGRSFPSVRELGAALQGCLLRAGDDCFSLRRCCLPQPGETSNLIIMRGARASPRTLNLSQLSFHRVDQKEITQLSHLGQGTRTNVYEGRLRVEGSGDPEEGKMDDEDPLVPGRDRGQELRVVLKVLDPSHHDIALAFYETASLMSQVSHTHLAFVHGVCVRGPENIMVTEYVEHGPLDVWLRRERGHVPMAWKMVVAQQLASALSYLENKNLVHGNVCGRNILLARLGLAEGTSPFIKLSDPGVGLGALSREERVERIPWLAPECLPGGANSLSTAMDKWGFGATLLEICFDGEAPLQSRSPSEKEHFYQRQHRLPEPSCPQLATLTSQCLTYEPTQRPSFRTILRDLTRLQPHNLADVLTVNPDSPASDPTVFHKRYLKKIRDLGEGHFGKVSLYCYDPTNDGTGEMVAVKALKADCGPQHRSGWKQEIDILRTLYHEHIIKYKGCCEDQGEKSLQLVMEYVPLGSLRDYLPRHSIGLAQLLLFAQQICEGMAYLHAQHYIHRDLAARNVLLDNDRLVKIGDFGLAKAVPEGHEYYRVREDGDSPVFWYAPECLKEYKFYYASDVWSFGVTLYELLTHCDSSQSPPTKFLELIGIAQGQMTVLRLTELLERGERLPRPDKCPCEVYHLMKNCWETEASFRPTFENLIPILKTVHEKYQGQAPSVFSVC
T4 sequence (P23458 whole entry): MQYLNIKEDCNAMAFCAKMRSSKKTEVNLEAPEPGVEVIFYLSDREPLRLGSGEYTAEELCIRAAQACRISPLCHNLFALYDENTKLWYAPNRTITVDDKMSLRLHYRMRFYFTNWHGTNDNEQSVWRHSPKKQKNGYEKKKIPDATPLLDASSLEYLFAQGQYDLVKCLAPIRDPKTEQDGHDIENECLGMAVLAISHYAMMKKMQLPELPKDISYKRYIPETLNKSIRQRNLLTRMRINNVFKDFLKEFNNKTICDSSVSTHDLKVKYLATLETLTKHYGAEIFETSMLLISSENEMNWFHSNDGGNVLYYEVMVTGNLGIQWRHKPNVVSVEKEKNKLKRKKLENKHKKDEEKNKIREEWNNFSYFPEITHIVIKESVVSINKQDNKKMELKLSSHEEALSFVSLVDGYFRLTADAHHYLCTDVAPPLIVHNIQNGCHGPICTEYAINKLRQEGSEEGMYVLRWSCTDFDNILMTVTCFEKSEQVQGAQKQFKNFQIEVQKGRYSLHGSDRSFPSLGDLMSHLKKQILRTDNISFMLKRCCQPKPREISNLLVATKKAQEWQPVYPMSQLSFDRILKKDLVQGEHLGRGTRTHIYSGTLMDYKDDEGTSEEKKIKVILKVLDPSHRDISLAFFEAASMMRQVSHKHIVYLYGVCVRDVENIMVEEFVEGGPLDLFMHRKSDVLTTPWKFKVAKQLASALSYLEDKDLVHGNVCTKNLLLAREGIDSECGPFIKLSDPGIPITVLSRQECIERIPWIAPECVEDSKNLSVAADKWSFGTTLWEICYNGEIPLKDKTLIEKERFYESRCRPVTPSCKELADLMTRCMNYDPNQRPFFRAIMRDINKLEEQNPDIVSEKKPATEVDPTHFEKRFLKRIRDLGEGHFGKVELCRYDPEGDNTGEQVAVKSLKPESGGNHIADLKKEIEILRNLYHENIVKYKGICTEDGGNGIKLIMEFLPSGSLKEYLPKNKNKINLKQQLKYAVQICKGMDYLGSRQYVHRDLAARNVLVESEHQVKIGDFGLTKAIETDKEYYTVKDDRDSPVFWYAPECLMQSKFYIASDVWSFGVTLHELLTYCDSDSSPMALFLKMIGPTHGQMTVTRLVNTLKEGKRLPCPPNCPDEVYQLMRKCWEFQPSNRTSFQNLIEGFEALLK
T1 sequence (O60674 whole entry): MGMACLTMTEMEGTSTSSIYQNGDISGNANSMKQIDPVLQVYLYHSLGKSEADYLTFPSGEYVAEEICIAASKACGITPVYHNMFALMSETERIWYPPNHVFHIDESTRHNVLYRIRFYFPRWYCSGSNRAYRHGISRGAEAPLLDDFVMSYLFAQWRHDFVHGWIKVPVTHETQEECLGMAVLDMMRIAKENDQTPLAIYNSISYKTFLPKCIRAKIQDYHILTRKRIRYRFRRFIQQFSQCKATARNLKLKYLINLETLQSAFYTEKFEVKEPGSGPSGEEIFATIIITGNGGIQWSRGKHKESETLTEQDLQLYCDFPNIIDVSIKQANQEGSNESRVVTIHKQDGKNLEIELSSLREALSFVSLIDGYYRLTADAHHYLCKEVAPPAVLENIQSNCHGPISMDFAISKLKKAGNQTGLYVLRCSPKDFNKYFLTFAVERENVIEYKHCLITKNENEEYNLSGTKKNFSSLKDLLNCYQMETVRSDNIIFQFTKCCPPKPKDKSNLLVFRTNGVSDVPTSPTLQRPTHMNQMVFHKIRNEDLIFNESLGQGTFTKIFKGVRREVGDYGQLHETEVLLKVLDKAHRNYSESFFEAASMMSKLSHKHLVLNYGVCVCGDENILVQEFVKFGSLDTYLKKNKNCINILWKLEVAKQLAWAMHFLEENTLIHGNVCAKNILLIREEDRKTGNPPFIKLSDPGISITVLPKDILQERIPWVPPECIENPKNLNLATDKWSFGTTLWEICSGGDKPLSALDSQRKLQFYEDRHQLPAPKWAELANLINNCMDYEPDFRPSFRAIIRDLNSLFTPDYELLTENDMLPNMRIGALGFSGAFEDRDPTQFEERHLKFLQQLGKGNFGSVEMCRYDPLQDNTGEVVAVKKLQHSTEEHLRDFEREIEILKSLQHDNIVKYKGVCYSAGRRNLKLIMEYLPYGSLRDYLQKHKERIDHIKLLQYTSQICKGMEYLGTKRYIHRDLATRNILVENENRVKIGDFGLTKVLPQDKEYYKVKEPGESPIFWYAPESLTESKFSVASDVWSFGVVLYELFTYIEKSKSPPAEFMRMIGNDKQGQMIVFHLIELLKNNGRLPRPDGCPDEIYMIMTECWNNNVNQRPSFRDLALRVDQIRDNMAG

Compound	Ki (JAK2) [nM]	IC50 [1, 2] [nM]	Ki (Tyk2) [nM]	Ki (JAK3) [nM]	JAK3 (pKi)-JAK1 (pKi) (JAK3; [3])	Ki (JAK1) [nM]	IC50 [1, 4] [nM]	JAK3 (pKi)-JAK1 (pKi) (JAK3; [5])	JAK 2 (pKi) (JAK2)	Tall-1 (pIC50) ([1]; IL-2 stimulated pSTAT5 in Tall-1 T cells)	Tyk 2 (pKi) (Tyk2)	JAK 3 (pKi) (JAK3)	JAK 1 (pKi) (JAK1)	Tall-1 (pIC50) [1, 6]
CN(C)C/C=C/C(=O)N1CCSC[C@@H]1C(=O)Nc1cc(-c2ccc(O)cc2)cc2[nH]ncc12 [Compound 12-65]	> 100	200 to 1000	> 100	0.1 to 1	A (a value of 3 or above)	> 100								
C=CC(=O)N1CC[C@H](Oc2cc(-c3ccc(O)cc3)cc3[nH]nc(C)c23)C1 [Compound 1-20]	10 to 100		> 100	0.1 to 1		> 100	< 31.6	B (a value of 2.3 to 3)						
C=CC(=O)N1CCC[C@@H](C(=O)Nc2cc(-c3ccc(O)cc3)cc3[nH]ncc23)[C@H]1C [Compound 12-57]	10 to 100	31.6 to 200	> 100	0.1 to 1	A (a value of 3 or above)	> 100								
C=CC(=O)N1CC(Oc2cc(-c3ccc(O)cc3)cc3[nH]ncc23)C1 [Compound 5-2]								A (a value of 3 or above)	E (a pKi value of 7 or below (Ki of 100 nM or above))	B (a pIC50 value between 6.7 (included) and 7.5 (IC50 between 200 nM and 32 nM))	E (a pKi value of 7 or below (Ki of 100 nM or above))	B (a pKi value between 9 and 10 (Ki between 1 nM and 0.1 nM))	E (a pKi value of 7 or below (Ki of 100 nM or above))	
CN(C)C/C=C/C(=O)N1CCC(Oc2cc(-c3ccc(O)c(F)c3)cc3[nH]ncc23)CC1 [Compound 6-20]	1 to 10	31.6 to 200	> 100	0.1 to 1	B (a value of 2.3 to 3)	10 to 100								
C=CC(=O)N1CC(C#N)(COc2nc(-c3ccc(O)c(F)c3)nc3[nH]ncc23)C1 [Compound 3-110]	> 100		> 100	0.1 to 1		> 100	31.6 to 200	A (a value of 3 or above)						
CCSCCNC/C=C/C(=O)N1CC(COc2cc(-c3ccc(O)cc3)cc3[nH]ncc23)C1 [Compound 3-126]	10 to 100		> 100	< 0.1		> 100	200 to 1000	A (a value of 3 or above)						
C=CC(=O)N1CCO[C@@H](C(=O)Nc2nc(-c3ccc(O)c(Cl)c3)cc3[nH]ncc23)C1 [Compound 13-20]					B (a value of 2.3 to 3)				E (a pKi value of 7 or below (Ki of 100 nM or above))		E (a pKi value of 7 or below (Ki of 100 nM or above))	B (a pKi value between 9 and 10 (Ki between 1 nM and 0.1 nM))	E (a pKi value of 7 or below (Ki of 100 nM or above))	B (a pIC50 value between 6.7 (included) and 7.5 (IC50 between 200 nM and 32 nM))
CN(C)C/C=C/C(=O)N1CC(COc2cc(-c3ccc(O)cc3)cc3[nH]nc(C(F)(F)F)c23)C1 [Compound 18-12]	10 to 100	31.6 to 200	> 100	0.1 to 1	B (a value of 2.3 to 3)	10 to 100								
CN(C)C/C=C/C(=O)N1CC2(CC(Oc3cc(-c4ccc(O)c(F)c4)cc4[nH]ncc34)C2)C1 [Compound 15-5]					B (a value of 2.3 to 3)				D (a pKi value between 7 and 8 (Ki between 100 nM and 10 nM))		E (a pKi value of 7 or below (Ki of 100 nM or above))	B (a pKi value between 9 and 10 (Ki between 1 nM and 0.1 nM))	D (a pKi value between 7 and 8 (Ki between 100 nM and 10 nM))	B (a pIC50 value between 6.7 (included) and 7.5 (IC50 between 200 nM and 32 nM))
C=CC(=O)N1CC(CC)(COc2nc(-c3ccc(O)c(F)c3)nc3[nH]ncc23)C1 [Compound 3-67]	> 100		> 100	0.1 to 1		> 100	31.6 to 200	A (a value of 3 or above)						
CN1CCC[C@H]1/C=C/C(=O)N1CC(COc2cc(-c3ccc(O)cc3)cc3[nH]ncc23)C1 [Compound 3-115]	0.1 to 1		> 100	0.1 to 1		> 100	31.6 to 200	A (a value of 3 or above)						
C=CC(=O)N1CC[C@H](Oc2cc(-c3ccc(O)cc3)cc3[nH]ncc23)C1 [Compound 1-2]	10 to 100		> 100	< 0.1		> 100	< 31.6	A (a value of 3 or above)						
C=CC(=O)N1CC(COc2cc(-c3ccc(O)c(F)c3)nc3[nH]ncc23)C1 [Compound 3-87]	> 100		> 100	0.1 to 1		> 100	31.6 to 200	A (a value of 3 or above)						
C=CC(=O)N1CC[C@H](S(=O)(=O)c2cc(-c3ccc(O)cc3)cc3[nH]ncc23)C1 [Compound 13]	> 100		> 100	< 0.1		> 100	31.6 to 200	A (a value of 3 or above)						
C=CC(=O)N1CC(Sc2cc(-c3ccc(O)cc3)cc3[nH]ncc23)C1 [Compound 12-35]	> 100	31.6 to 200	> 100	0.1 to 1	B (a value of 2.3 to 3)	> 100								
C=CC(=O)N1CCC(Sc2cc(-c3ccc(O)cc3)cc3[nH]ncc23)CC1 [Compound 12-4]	> 100	31.6 to 200	> 100	0.1 to 1	A (a value of 3 or above)	> 100								
C=CC(=O)N1CC2(CCC2Oc2nc(-c3ccc(O)cc3)nc3[nH]ncc23)C1 (stereo not drawn) [Compound 13-16]					A (a value of 3 or above)				E (a pKi value of 7 or below (Ki of 100 nM or above))		E (a pKi value of 7 or below (Ki of 100 nM or above))	B (a pKi value between 9 and 10 (Ki between 1 nM and 0.1 nM))	E (a pKi value of 7 or below (Ki of 100 nM or above))	B (a pIC50 value between 6.7 (included) and 7.5 (IC50 between 200 nM and 32 nM))
C=CC(=O)N1CC[C@H](Oc2cc(-c3ccc(O)c(Cl)c3)cc3[nH]nc(SC)c23)C1 [Compound 1-41]	> 100		> 100	0.1 to 1		> 100	31.6 to 200	A (a value of 3 or above)						
C=CC(=O)N1CC(C#N)(COc2nc(-c3ccc(O)cc3)nc3[nH]ncc23)C1 [Compound 3-104]	> 100		> 100	< 0.1		> 100	< 31.6	A (a value of 3 or above)						
C=CC(=O)N1CC(COc2cc(-c3ccc(O)c(Cl)c3)cc3[nH]ncc23)C1 [Compound 3-3]	> 100		> 100	0.1 to 1		> 100	< 31.6	A (a value of 3 or above)						
